Source: patent publication US7553867B2, “Furan or thiophene derivative and medicinal use thereof” (Takeda Pharmaceutical Company Limited, priority 2002, dated 2009)
Each block holds one compound with its values, some of them ahead of it.

What was measured:
PPARδ-RXRα heterodimer = target: T1, PPARδ-RXRα heterodimer (Homo sapiens, UniProt Q03181); test: PPARδ-RXRα heterodimer ligand activity (luciferase reporter, transfected COS-1 cells); assay type: cell-based; conditions: luciferase activity at 10 nM test compound relative to non-administration group as 1
T1 construct: expressed in transfected cells; host or cells: COS-1 (transient; pMCMVneo-hPPARδ + pMCMVneo-hRXRα)
T1 sequence (Q03181 1-441): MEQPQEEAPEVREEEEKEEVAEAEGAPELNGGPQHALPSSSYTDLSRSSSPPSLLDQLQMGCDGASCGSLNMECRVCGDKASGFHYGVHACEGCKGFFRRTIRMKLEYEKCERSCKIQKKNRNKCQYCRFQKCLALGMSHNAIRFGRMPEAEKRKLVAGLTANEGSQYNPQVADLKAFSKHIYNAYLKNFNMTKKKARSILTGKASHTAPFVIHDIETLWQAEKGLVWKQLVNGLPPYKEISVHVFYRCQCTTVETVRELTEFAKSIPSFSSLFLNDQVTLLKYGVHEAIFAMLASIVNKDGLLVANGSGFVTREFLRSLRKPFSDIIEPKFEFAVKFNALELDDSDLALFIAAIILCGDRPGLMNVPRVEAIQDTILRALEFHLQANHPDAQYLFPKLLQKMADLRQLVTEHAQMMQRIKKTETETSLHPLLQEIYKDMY
T1 sequence (P19793 1-462 partner): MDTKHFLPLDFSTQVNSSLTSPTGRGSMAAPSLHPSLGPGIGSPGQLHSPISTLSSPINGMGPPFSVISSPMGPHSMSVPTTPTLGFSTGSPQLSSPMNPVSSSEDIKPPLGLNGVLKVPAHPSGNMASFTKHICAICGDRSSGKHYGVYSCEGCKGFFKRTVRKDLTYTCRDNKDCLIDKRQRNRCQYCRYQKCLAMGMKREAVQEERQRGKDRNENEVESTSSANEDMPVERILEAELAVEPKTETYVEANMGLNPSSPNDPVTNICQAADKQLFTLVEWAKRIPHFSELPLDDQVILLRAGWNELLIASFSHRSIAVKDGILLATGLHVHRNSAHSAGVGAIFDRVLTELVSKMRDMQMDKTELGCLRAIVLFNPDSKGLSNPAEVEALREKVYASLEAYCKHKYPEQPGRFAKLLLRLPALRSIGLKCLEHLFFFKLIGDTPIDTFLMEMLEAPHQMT
Description: (§1) At 18 to 24 hours after transfection carried out in Reference Example 9a, COS-1 cells were collected, suspended in DMEM medium [manufactured by Life Technologies, Inc., USA] containing 0.1% fatty acid-free bovine serum albumin (BSA) (produced by Waco Pure Chemicals Industries, Ltd.), and inoculated to each well of a 96-well white plate (produced by Corning, USA) at 1×10^4 cells/well in 80 μl. Subsequently, 20 μl of a test compound was added, and the plate was incubated under the conditions of 37° C. and 5% CO2 for 36 to 48 hours. After removal of the medium from the 96-well white plate, 40 μl of PicaGene. LT 7.5 (produced by Waco Pure Chemicals Industries, Ltd.) diluted twofold with HBSS (HANKS' BALANCED SALT SOLUTION) (produced by BIO WHITTAKER) was added, and after stirring, the luciferase activity was determined using 1420 ARVO Multilabel Counter [produced by Wallac].
The fold induction was calculated from the luciferase activity for addition of each 10 nM of the test compound relative to the luciferase activity of the test compound non-administration group as 1. Results are shown in [Table 2].
(§2) A COS-1 cell was inoculated in a cell culture flask (produced by Corning, USA) of 150 cm^2 at 5×10^6 cells/50 ml, and the plate was incubated under the conditions of 37° C. and 5% CO2 for 24 hours. Transfection was carried out with lipofectamine (produced by Invitrogen, USA). A transfection mixture solution was prepared by mixing 125 μl of lipofectamine, 100 μl of PLUS Reagent, 2.5 μg of pMCMVneo-hPPARδ (obtained in Reference Example 3a), 2.5 μg of pMCMVneo-hRXRα (obtained in Reference Example 4a), 5 μg of reporter plasmid pGL3-4ERPP-TK neo (obtained in Reference Example 5a) and 5 μg of pRL-tk [produced by Promega, USA] with 5 ml of opti-MEM (produced by Invitrogen, USA). To the COS-1 cell washed with opti-MEM, the above-mentioned transfection mixture solution and 20 ml of opti-MEM were added, and then incubated under the conditions of 37° C. and 5% CO2 for 3 hours. Then, 25 ml of DMEM medium [manufactured by Life Technologies, Inc., USA] containing 0.1% fatty acid-free bovine serum albumin (BSA) (produced by Waco Pure Chemicals Industries, Ltd.) was added thereto, and then incubated under the conditions of 37° C. and 5% CO2 for 18 to 24 hours.

PPARα-RXRα heterodimer = target: T2, PPARα-RXRα heterodimer (Homo sapiens, UniProt Q07869); test: PPARα-RXRα heterodimer ligand activity (luciferase reporter, transfected COS-1 cells); assay type: cell-based; conditions: luciferase activity at 10 nM compound relative to control without compound as 1
T2 construct: expressed in transfected cells; host or cells: COS-1 (transient; pMCMVneo-hPPARα + pMCMVneo-hRXRα)
T2 sequence (Q07869 1-468): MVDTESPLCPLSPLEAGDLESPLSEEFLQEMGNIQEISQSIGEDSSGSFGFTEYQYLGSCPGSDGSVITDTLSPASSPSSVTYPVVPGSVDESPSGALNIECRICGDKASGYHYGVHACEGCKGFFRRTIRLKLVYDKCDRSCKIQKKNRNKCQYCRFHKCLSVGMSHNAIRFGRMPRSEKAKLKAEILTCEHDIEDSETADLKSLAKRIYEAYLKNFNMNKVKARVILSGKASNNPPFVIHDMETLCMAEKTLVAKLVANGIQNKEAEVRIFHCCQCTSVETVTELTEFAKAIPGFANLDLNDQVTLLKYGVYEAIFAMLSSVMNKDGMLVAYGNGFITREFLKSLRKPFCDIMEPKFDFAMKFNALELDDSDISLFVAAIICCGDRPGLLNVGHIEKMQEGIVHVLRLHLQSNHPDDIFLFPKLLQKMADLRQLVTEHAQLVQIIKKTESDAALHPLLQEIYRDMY
T2 sequence (P19793 1-462 partner): T1 sequence (P19793 1-462 partner)
Description: as §1, with “12a,” for “9a,”, “BSA (fatty acid-free)” for “fatty acid-free bovine serum albumin (BSA)”, “at” for “under the conditions of”, “in a carbon dioxide gas incubator” for “and 5% CO2”, “PicaGene” for “PicaGene.”
The fold induction was calculated from the luciferase activity for the well to which 10 nM of the compound is added, relative to the luciferase activity of a control to which the compound is not added as 1. Results are shown in [Table 3].
as §2, with “and” for “and the plate was”, “pMCMVneo-hPPARα” for “pMCMVneo-hPPARδ”, “11a),” for “3a),”, “To” for “To the”

human GPR40 = target: T3, human GPR40 (Homo sapiens, UniProt O14842); test: Receptor function regulating action (agonist action) for GPR40, intracellular calcium by FLIPR in CHO cells; assay type: cell-based; conditions: CHO cells expressing human GPR40; change of fluorescence intensity at 30 seconds after reaction initiation
T3 construct: expressed in transfected cells; host or cells: CHO cell strain (No. 104)
Description: CHO cell strain (No. 104) which have had expressed human GPR40 was diluted to contain 3×10^4 cells/100 μL, and added to a Black walled 96-well plate (Costar) at 100 μL/well, and incubated overnight in CO2 incubator. Change of intracellular calcium concentration was measured with FLIPR (Molecular Device). The method is as follows. 50 μg of Fluo-3AM (DOJIN) was dissolved in 21 μL of DMSO (DOJIN), and the same amount of 20% pluronic acid (Molecular Probes) was further added thereto, and the mixture was mixed. The mixture was added to 10.6 mL of an assay buffer [prepared by adding 10 mL of solution which was produced by adding 20 mL of 1 M HEPES (pH 7.4) (DOJIN) to 1 L of HBSS (Invitrogen), dissolving 710 mg of probenecid (Sigma) in 5 mL of 1N NaOH, and further adding 5 mL of the above-mentioned HBSS/HEPES solution thereto and mixing it.] containing 105 μL of fetal bovine serum, to give a fluorescent dye solution. The medium of the cell plate was removed, and immediately, the fluorescent dye solution was added at 100 μL/well, and incubated in CO2 incubator for 1 hour, allowing the fluorescent dye to be incorporated into the cells. The cells after incubation were washed with the above-mentioned assay buffer. The compound to be added to the cells was diluted with the assay buffer to each concentration, added to the plate for the test sample. After conducting the above-mentioned pretreatment, intracellular calcium concentration change after adding the compound was measured in FLIPR to investigate the agonist action. By dose-response curve with the change of fluorescence intensity value at 30 seconds after reaction initiation, EC50 value was calculated.

T3 sequence (O14842 whole entry): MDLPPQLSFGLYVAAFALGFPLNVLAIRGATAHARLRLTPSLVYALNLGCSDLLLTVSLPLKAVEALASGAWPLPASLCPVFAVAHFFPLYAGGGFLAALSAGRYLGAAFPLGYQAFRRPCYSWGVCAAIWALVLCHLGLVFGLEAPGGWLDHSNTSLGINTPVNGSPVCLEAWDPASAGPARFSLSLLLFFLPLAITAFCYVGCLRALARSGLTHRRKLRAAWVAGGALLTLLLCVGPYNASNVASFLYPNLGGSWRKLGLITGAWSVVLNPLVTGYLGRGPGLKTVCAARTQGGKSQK

SMILES: Cc1oc(-c2ccc(F)cc2)cc1COc1cccc(CSCC(=O)O)c1 [Example 6(1), [(3-{[5-(4-Fluorophenyl)-2-methyl-3-furyl]methoxy}benzyl)thio]acetic acid]
fold induction at 0.01 µM (PPARα-RXRα heterodimer): 8.9 | melting point: 120 to 122 °C

SMILES: COc1cc(OCc2cc(-c3ccc(C(F)(F)F)cc3)oc2C)ccc1CCC(=O)O [Example 6(6), 3-[2-Methoxy-4-({2-methyl-5-[4-(trifluoromethyl)phenyl]-3-furyl}methoxy)phenyl]propionic acid]
fold induction at 0.01 µM (PPARδ-RXRα heterodimer): 6.6 | EC50 (human GPR40): 160 nM | melting point: 159 to 160 °C

SMILES: Cc1cc(OCCCc2cc(-c3ccc(C(F)(F)F)cc3)oc2C)ccc1CCC(=O)O [Example 6(24), 3-[2-Methyl-4-(3-{2-methyl-5-[4-(trifluoromethyl)phenyl]-3-furyl}propoxy)phenyl]propionic acid]
fold induction at 0.01 µM (PPARδ-RXRα heterodimer): 6.8 | melting point: 125 to 126 °C

SMILES: CCc1oc(-c2ccc(C(F)(F)F)cc2)cc1CCCOc1cccc(CC(=O)O)c1 [Example 6(26), [3-(3-{2-Ethyl-5-[4-(trifluoromethyl)phenyl]-3-furyl}propoxy)phenyl]acetic acid]
fold induction at 0.01 µM (PPARδ-RXRα heterodimer): 5.6 | melting point: 113 to 114 °C

SMILES: Cc1oc(-c2ccc(F)cc2)cc1COc1cccc(CSC(C)(C)C(=O)O)c1 [Example 6, 2-[(3-{[5-(4-Fluorophenyl)-2-methyl-3-furyl]methoxy}benzyl)thio]-2-methylpropionic acid]
fold induction at 0.01 µM (PPARα-RXRα heterodimer): 9.3

More lines, now with the values ahead:

fold induction at 0.01 µM (PPARδ-RXRα heterodimer): 6.7 | melting point: 95 to 97 °C
SMILES: CCc1oc(-c2ccc(C(F)(F)F)cc2)cc1COc1ccc(CCC(=O)O)c(C)c1 [Example 5(9), 3-[4-({2-Ethyl-5-[4-(trifluoromethyl)phenyl]-3-furyl}methoxy)-2-methylphenyl]propionic acid]

fold induction at 0.01 µM (PPARδ-RXRα heterodimer): 7.4 | EC50 (human GPR40): 180 nM | melting point: 140 to 141 °C
SMILES: Cc1cc(OCc2cc(-c3ccc(C(F)(F)F)cc3)oc2C)ccc1CCC(=O)O [Example 6(4), 3-[2-Methyl-4-({2-methyl-5-[4-(trifluoromethyl)phenyl]-3-furyl}methoxy)phenyl]propionic acid]
